Data published in US4004008A, “O-Tertiary amino-alkyl-N-benzoyl tyrosil amides” (priority 1974, dated 1977).

How the values were obtained:
[1] = Acute toxicity (DL50) i.v. in rat; format: in vivo; settings: in vivo, iv, dose causing death in 50% of the animals
Protocol: In this table (n. 1) there are recorded the compounds described in the examples with their relative serial numbers, the acute toxicity, the antispastic activity observed in two experimental tests, one "in vivo" and one "in vitro". There are moreover recorded two therapeutic indices which take account of the toxicity of these compounds in relation to their in vivo and in vitro activity. More precisely:
A. DL50 which, as is known, is the quantity of the substance expressed in mg/kg of animal weight, capable of causing death in 50% of the animals treated.

[2] = test system: intestinal transit of the charcoal; assay: Vegetable carbon (charcoal) intestinal transit test in vivo; parameters: species or system rat; settings: i.v., rat, charcoal test, 2 hours; for ED50: Rattus norvegicus, iv, 2 h, read-out: Antisp. activity in transit test: ED50
Protocol: B. The vegetable carbon method in vivo (charcoal method) which consists of administering by oral means to rats, which have fasted for 24 hours, 0.3ml/per rate of a mixture consisting of: 10g of charcoal and 5 g of gum arabic suspended in a volume of 100 cc of H2 O as well as at the same time the substance being studied, accordingly as desired, generally i.v., s.c., oral. After two hours the animals are killed and those are taken to be negative in which the charcoal has reached the first portion of the colon and the others positive, in the sense that the substance administered has slowed down the intestinal transit of the charcoal.
In effect the animals treated with a physiological solution (checks) are all negative after two hours.
D. I.T.1 is the therapeutic index under the profile of the antispastic activity in vivo, and it is obtained by recording the DL50 (column 2) with the ED50 of the charcoal test (column 3).

[3] = test system: ileum of a cavy (BaCl2 spasm); assay: Antispastic activity in vitro, Magnus method, cavy ileum stimulated with BaCl2; format: cell-based; settings: ratio to papaverine = 1; Table 1; 37°
Protocol: C. The method in vitro is that of Magnus, with the ileum of the cavy, and is in common use for all evaluations. It consists of extracting the ileum from the cavy and placing it in a receptacle which contains nutritive liquid, suitably oxygenated, and registering the movements of the organ which remains alive for several hours if maintained at a temperature of 37°. According to the traditional method followed by us, BaCl2 is put into the bath as a spasmisant: the reaction is a violent contraction of the organ. This contraction can be prevented by adding beforehand pharmaceuticals which inhibit spasms, and in this case our compounds.
The values recorded are expressed as relation between papaverine and the ED50 of our compounds. (As is known, the ED50 is the dose which results in a 50% reduction in spastic contraction).
E. I.T.2 is the therapeutic index under the profile of the antispastic activity in vitro and is given by the product between the in vitro antispastic activity index (column 4) and the corresponding DL50 (column 2).

Compound	LD50 [1] [mg/kg]	ED50 [2] [mg/kg]	Antisp. activity in transit test: ED50 [2]	Antisp. activity in vitro on the ileum of a cavy by Stim. BaCl2: ED50 pap./ED50 CR [3]
CCCN(CCC)C(=O)C(Cc1ccc(OCCCN2CCN(Cc3ccccc3)CC2)cc1)NC(=O)c1ccccc1 (racemic) [CR 619, O-[3-(N"-benzylpiperazine)-N'-propyl]-N-benzoyl-DL-tyrosil-di-n-propylamide]	110	67.8		
CCCN(CCC)C(=O)C(Cc1ccc(OCCN2CCCCC2)cc1)NC(=O)c1ccccc1 (racemic) [CR 630, O-(2-piperidil -N'-ethyl)-N-benzoyl-DL-tyrosil-di-n-propylamide]	36.1	40.1		
CCCN(CCC)C(=O)C(Cc1ccc(OC(C)C(C)CN(CC)CC)cc1)NC(=O)c1ccccc1 (racemic) [CR 700, O-(3-diethylamino-1,2-dimethyl-propyl)-N-benzoyl-DL-tyrosil-di-n-propylamide]	19.3	20.4		
CCCN(CCC)C(=O)C(Cc1ccc(OCCN(C)C)cc1)NC(=O)c1ccc([N+](=O)[O-])cc1 (racemic) [CR 620, O-(2-dimethylamino-ethyl)-N-(p-nitro-benzoyl)DL-tyrosil-di-n-propylamide]	117		inactive	0.36
CCNC(=O)C(Cc1ccc(OCCN(C)C)cc1)NC(=O)OCc1ccccc1 [CR 610, O-(2-dimethylamino-ethyl)-N-carbobenzoxy-L-tyrosil-ethylamide]	139	58.1		0.13
CCCN(CCC)C(=O)C(Cc1ccc(OCCN(CC)CC)cc1)NC(=O)c1ccc(Br)cc1 (racemic) [CR 631, O-(2-diethylamino-ethyl)-N-(p-bromobenzoyl)-DL-tyrosil-din-propylamide]	60.2	40.4		1.22
CCN(CC)CCOc1ccc(CC(NC(=O)c2ccccc2)C(=O)N(CC)CC)cc1 (racemic) [CR 734, O-(2-diethylamino-ethyl)-N-benzoyl-DL-tyrosil-di-ethylamide]	62.2	33.4		0.52
CCCCNC(=O)C(Cc1ccc(OCCN2CCCC2)cc1)NC(=O)c1ccccc1 (racemic) [CR 648, O-(2-pyrrolidil-N'-ethyl)-N-benzoyl-DL-tyrosil-n-butylamide]	35.6	10.7		0.16
CN(C)CCOc1ccc(C[C@H](NC(=O)OCc2ccccc2)C(=O)NCc2ccccc2)cc1 [CR 612, O-(2-dimethylamino-ethyl)-N-carbobenzoxy-L-tyrosil-benzylamide]	87.7	23		0.35
CCCCCCNC(=O)C(Cc1ccc(OCCN2CCCC2)cc1)NC(=O)c1ccccc1 (racemic) [CR 825, O-(2-pyrrolidil-N'-ethyl)-N-benzoyl-DL-tyrosil-n-hexylamide]	42	14.8		1.8
CCNC(=O)C(Cc1ccc(OCCCN2CCN(C)CC2)cc1)NC(=O)c1ccc(Cl)cc1 (racemic) [CR 714, O-[3-(N"-methyl-piperazine)-N'-propyl]-N-(p-chloro-benzoyl)-DL-tyrosil-ethylamide]	111		inactive	0.42
CCN(CC)CCOc1ccc(CC(NC(=O)c2ccccc2)C(N)=O)cc1 (racemic) [CR 740, O-(2-dietylamino-ethyl)-N-benzoyl-DL-tyrosil-amide]	102		inactive	0.36
CN(C)CCOc1ccc(CC(NC(=O)c2ccccc2)C(=O)N2CCOCC2)cc1 (racemic) [CR 611, O-(2-dimetylamino-ethyl)-N-benzoyl-DL-tyrosil-morpholilamide]	108	59.8		
CCCN(CCC)CCOc1ccc(CC(NC(=O)c2ccccc2)C(=O)N(CCC)CCC)cc1 (racemic) [CR 823, O-(2-di-n-propylamino-ethyl)-N-benzoyl-DL-tyrosil-di-n-propylamide]	23	16.2		1.48
CN(C)CCOc1ccc(C[C@H](NC(=O)OCc2ccccc2)C(=O)N2CCOCC2)cc1 [CR 606, O-(2-dimethylamino-ethyl)-N-carbobenzoxy-L-tyrosil-morpholylamide]	128		inactive	0.19
CCCNC(=O)C(Cc1ccc(OCCN2CCCC2)cc1)NC(=O)c1ccccc1 (racemic) [CR 821, O-(2-pyrrolidil-N'-ethyl)-N-benzoyl-DL-tyrosil-n-propylamide]	53	15.6		0.13
CCCCNC(=O)C(Cc1ccc(OCCN(CC)CC)cc1)NC(=O)c1ccccc1 (racemic) [CR 786, O-(2-diethylamine-ethyl)-N-benzoyl-DL-tyrosil-n-butylamide]	38	34.3		0.17
CCCN(CCC)C(=O)C(Cc1ccc(OCCCCN(CC)CC)cc1)NC(=O)c1ccccc1 (racemic) [CR 829, O-(4-diethylamino-butyl)-N-benzoyl-DL-tyrosil-di-n-propylamide]	20.1	15.2		
CCCN(CCC)C(=O)C(Cc1ccc(OCCN(CC)CC)cc1)NC(=O)c1ccc(Cl)cc1 [CR 831, O-(2-diethylamino-ethyl)-N-(p-chloro-benzoyl)-L-tyrosil-din-propylamide]	35	24.4		1.30
CCCN(CCC)C(=O)C(Cc1ccc(OCCN(CC)CC)cc1)NC(=O)c1ccc(OC)cc1 (racemic) [CR 644, O-(2-diethylamino-ethyl)-N-(p-metoxy-benzoyl)-DL-tyrosil-di-n-propylamide]	56.4	20.2		0.45
CN(C)CCOc1ccc(CC(NC(=O)c2ccccc2)C(=O)NCc2ccccc2)cc1 (racemic) [CR 616, O-(2-dimethylamino-ethyl)-N-benzoyl-DL-tyrosil-benzylamide]	73.6		inactive	0.82
CCN(CC)CCOc1ccc(CC(NC(=O)c2ccccc2)C(=O)N(C)C)cc1 (racemic) [CR 738, O-(2-diethylamino-ethyl)-N-benzoyl-DL-tyrosil-di-methylamide]	85.3	50.6		0.14
CCN(CC)C(=O)C(Cc1ccc(OCCN2CCN(C)CC2)cc1)NC(=O)c1ccccc1 (racemic) [CR 736, O-[2-(N"-methyl-piperazine)-N'-ethyl]-N-benzoyl-DL-tyrosildiethylamide]	102	39.6		0.04
CCCCNC(=O)C(Cc1ccc(OCCCN2CCN(C)CC2)cc1)NC(=O)c1ccc(Cl)cc1 (racemic) [CR 705, O-[3-(N"-methyl-piperazine)-N'-propyl]-N-(p-chloro-benzoyl)-DL-tyrosil-n-butylamide]	80	31		1.57
CCCN(CCC)C(=O)C(Cc1ccc(OCCN(C)C)cc1)NC(=O)OCc1ccc([N+](=O)[O-])cc1 (centres unmarked) [CR 613]	100	58.7		0.68
CCCN(CCC)C(=O)C(Cc1ccc(OCCN(C)C)cc1)NC(=O)c1ccccc1 (racemic) [CR 592, O-(2dimethylamino-ethyl)-N-benzol-DL-Tyrosil-di-n-propilamide]	58.1	47.5		0.25
CCNC(=O)C(Cc1ccc(OCCN(C)C)cc1)NC(=O)c1ccccc1 (racemic) [CR 608, O-(2-dimethylamino-ethyl)-N-benzoyl-DL-tyrosil-ethylamide]	162	104		
CCN(CC)CCOc1ccc(CC(NC(=O)c2ccccc2)C(=O)N2CCCC2)cc1 (racemic) [CR 614, O-(2-diethylamino-ethyl)-N-benzoyl-DL-tyrosil-pyrrolidilamide]	58.7	53.2		
